What was measured:
rat [1] = conditions: Combined chronic toxicity/carcinogenicity, other, Oral, Feed, dose end: 105 week
dog = conditions: Subchronic oral toxicity in nonrodent, beagle, Capsule, dose end: 5 month
mouse [2] = conditions: Combined chronic toxicity/carcinogenicity, b6c3f1, Oral, Feed, dose end: 2 year
mouse [3] = conditions: Carcinogenicity, b6c3f1, Oral, Feed, dose end: 104 week
rabbit [4] = conditions: Prenatal developmental toxicity study, new zealand white, Oral, Gavage/Intubation, dose end: 19 GD
mouse [5] = conditions: Prenatal developmental toxicity study, cd1, Oral, Gavage/Intubation, dose end: 15 GD
rabbit [6] = conditions: Prenatal developmental toxicity study, new zealand white, Oral, Gavage/Intubation, dose end: 19 GD; remark: listed apart in the source
rat [7] = conditions: Prenatal developmental toxicity study, sprague dawley, Oral, Gavage/Intubation, dose end: 15 GD
mouse [8] = conditions: Combined chronic toxicity/carcinogenicity, cd1, Oral, Feed, dose end: 24 month
rat [9] = conditions: Multigenerational reproductive toxicity study, other, Oral, Feed, dose end: 2 generation
[10] = group: cholinesterase, cholinesterase / cholinesterase / cholinesterase / brain cholinesterase (che) + cholinesterase / cholinesterase / cholinesterase / …
[11] = group: systemic, systemic / hematology / erythrocyte (rbc) count differential / erythrocyte (rbc) + systemic / hematology / hematocrit (hct) / hematocrit (…
[12] = group: cholinesterase, cholinesterase / cholinesterase / cholinesterase / plasma cholinesterase (che)
[13] = group: cholinesterase, cholinesterase / cholinesterase / cholinesterase / plasma cholinesterase (che) + cholinesterase / cholinesterase / cholinesterase / brain …
[14] = group: systemic, systemic / in life observation / clinical signs / soft stools
[15] = group: cholinesterase, cholinesterase / cholinesterase / cholinesterase / erythrocyte cholinesterase (che) + cholinesterase / cholinesterase / cholinesterase / …
[16] = group: systemic, systemic / in life observation / body weight / body weight gain + systemic / pathology microscopic / kidney / regeneration
[17] = group: systemic, systemic / organ weight / lung / absolute
[18] = group: developmental, developmental / developmental malformation / bone / [other] + developmental / developmental malformation / bone / absent + developmental / …
[19] = group: maternal, reproductive / reproductive performance / postimplantation loss / postimplantation loss + systemic / in life observation / body weight / …
[20] = group: developmental, developmental / developmental malformation / bone / exencephaly + developmental / developmental malformation / bone / fused + developmental…
[21] = group: developmental, systemic / in life observation / body weight / fetal weight
[22] = group: maternal, reproductive / reproductive performance / implantations / implantations + systemic / in life observation / body weight / body weight gain + …
[23] = group: developmental, developmental / developmental malformation / general / [other]
[24] = group: maternal, systemic / in life observation / body weight / body weight + systemic / in life observation / body weight / body weight gain + systemic / in…
[25] = group: cholinesterase, cholinesterase / cholinesterase / cholinesterase / brain cholinesterase (che)
[26] = group: cholinesterase, cholinesterase / cholinesterase / cholinesterase / brain cholinesterase (che) + cholinesterase / cholinesterase / cholinesterase / plasma …
[27] = group: systemic, systemic / pathology microscopic / liver / adenoma + systemic / pathology gross / liver / mass
[28] = group: systemic, systemic / pathology microscopic / liver / adenoma + systemic / pathology microscopic / liver / adenoma/carcinoma combined + systemic / …
[29] = group: offspring, systemic / pathology microscopic / ureter / hyperplasia
[30] = group: parental, systemic / in life observation / clinical signs / motor activity

CCCSP(=O)(OCC)SCCC [Ethoprop]
LEL (rat [1]; [10]): 3 mg/kg/day
LOAEL (rat [1]; [10]): 3 mg/kg/day
NEL (rat [1]; [10]): 0.05 mg/kg/day
NOAEL (rat [1]; [10]): 0.05 mg/kg/day
LEL (rat [1]; [11]): 20 mg/kg/day
LOAEL (rat [1]; [11]): 20 mg/kg/day
NOAEL (rat [1]; [11]): 3 mg/kg/day
NEL (rat [1]; group: systemic, systemic / organ weight / kidney / relative to body weight + systemic / organ weight / thyroid gland / relative to body weight): 3 mg/kg/day
LEL (dog; [12]): 0.025 mg/kg/day
LOAEL (dog; [12]): 0.025 mg/kg/day
NEL (dog; [13]): 0.01 mg/kg/day
NOAEL (dog; [13]): 0.01 mg/kg/day
LEL (dog; [14]): 0.025 mg/kg/day
LOAEL (dog; [14]): > 1 mg/kg/day
NEL (dog; [14]): 0.01 mg/kg/day
NOAEL (dog; [14]): ≥ 1 mg/kg/day
LEL (mouse [2]; [15]): 0.306 mg/kg/day
LOAEL (mouse [2]; [15]): 0.306 mg/kg/day
NEL (mouse [2]; [15]): 0.032 mg/kg/day
NOAEL (mouse [2]; [15]): 0.032 mg/kg/day
LOAEL (mouse [2]; group: systemic, systemic / in life observation / body weight / body weight gain): 4.44 mg/kg/day
NEL (mouse [2]; [16]): 0.032 mg/kg/day
NOAEL (mouse [2]; [16]): 0.306 mg/kg/day
LEL (mouse [2]; group: systemic, systemic / pathology microscopic / kidney / regeneration): 0.306 mg/kg/day
LEL (mouse [3]; [15]): 0.254 mg/kg/day
LOAEL (mouse [3]; [15]): 0.254 mg/kg/day
NEL (mouse [3]; [15]): 0.026 mg/kg/day
NOAEL (mouse [3]; [15]): 0.026 mg/kg/day
LOAEL (mouse [3]; group: systemic, systemic / in life observation / body weight / body weight + systemic / in life observation / body weight / body weight gain): 3.96 mg/kg/day
NOAEL (mouse [3]; group: systemic, systemic / in life observation / body weight / body weight + systemic / in life observation / body weight / body weight gain + systemic / in…): 0.254 mg/kg/day
LEL (mouse [3]; [17]): 0.032 mg/kg/day
NEL (mouse [3]; [17]): < 0.032 mg/kg/day

CCOCCOCC [Ethylene glycol diethyl ether]
LEL (rabbit [4]; [18]): 100 mg/kg/day
LOAEL (rabbit [4]; [18]): > 100 mg/kg/day
NEL (rabbit [4]; [18]): 50 mg/kg/day
NOAEL (rabbit [4]; [18]): ≥ 100 mg/kg/day
LEL (rabbit [4]; [19]): 100 mg/kg/day
LOAEL (rabbit [4]; [19]): > 100 mg/kg/day
NEL (rabbit [4]; [19]): 50 mg/kg/day
NOAEL (rabbit [4]; [19]): ≥ 100 mg/kg/day
LEL (mouse [5]; [20]): 500 mg/kg/day
LOAEL (mouse [5]; [20]): > 1000 mg/kg/day
NEL (mouse [5]; [20]): 150 mg/kg/day
NOAEL (mouse [5]; [20]): ≥ 1000 mg/kg/day
LEL (mouse [5]; [19]): 1000 mg/kg/day
LOAEL (mouse [5]; [19]): > 1000 mg/kg/day
NEL (mouse [5]; [19]): 500 mg/kg/day
NOAEL (mouse [5]; [19]): ≥ 1000 mg/kg/day

CN(C)c1ccc(C(=C2C=CC(=[N+](C)C)C=C2)c2ccc(N(C)C)cc2)cc1.[Cl-] [Gentian Violet]
LEL (rabbit [6]; [21]): 0.5 mg/kg/day
LOAEL (rabbit [6]; [21]): > 2 mg/kg/day
NEL (rabbit [6]; [21]): < 0.5 mg/kg/day
NOAEL (rabbit [6]; [21]): ≥ 2 mg/kg/day
LEL (rabbit [6]; [22]): 0.5 mg/kg/day
LOAEL (rabbit [6]; [22]): > 2 mg/kg/day
NEL (rabbit [6]; [22]): < 0.5 mg/kg/day
NOAEL (rabbit [6]; [22]): ≥ 2 mg/kg/day
LEL (rat [7]; [23]): 10 mg/kg/day
LOAEL (rat [7]; [23]): > 10 mg/kg/day
NEL (rat [7]; [23]): 5 mg/kg/day
NOAEL (rat [7]; [23]): ≥ 10 mg/kg/day
LOAEL (rat [7]; [24]): > 10 mg/kg/day
NEL (rat [7]; [24]): 2.5 mg/kg/day
NOAEL (rat [7]; [24]): ≥ 10 mg/kg/day
LEL (rat [7]; group: maternal, systemic / in life observation / body weight / body weight gain): 5 mg/kg/day

COc1nn(CSP(=S)(OC)OC)c(=O)s1 [Methidathion]
LEL (mouse [8]; [25]): 1.6 mg/kg/day
LOAEL (mouse [8]; [25]): 7.5 mg/kg/day
NEL (mouse [8]; [26]): 0.46 mg/kg/day
NOAEL (mouse [8]; [26]): 1.6 mg/kg/day
LEL (mouse [8]; [27]): 0.46 mg/kg/day
NEL (mouse [8]; [27]): < 0.46 mg/kg/day
LOAEL (mouse [8]; [28]): 7.5 mg/kg/day
NOAEL (mouse [8]; [28]): 1.6 mg/kg/day

COc1cc(OC)nc(NC(=O)NS(=O)(=O)Nc2ccccc2C(=O)N(C)C)n1 [Orthosulfamuron]
LEL (rat [9]; [29]): 765 mg/kg/day
LOAEL (rat [9]; [29]): > 765 mg/kg/day
NEL (rat [9]; [29]): 205 mg/kg/day
NOAEL (rat [9]; [29]): ≥ 765 mg/kg/day
LEL (rat [9]; [30]): 635 mg/kg/day
LOAEL (rat [9]; [30]): 635 mg/kg/day
NEL (rat [9]; [30]): 145 mg/kg/day
NOAEL (rat [9]; [30]): 145 mg/kg/day

Reference: EPA's ToxRefDB 2
